In patent US20260028348A1, “MODULATORS OF TNF-ALPHA ACTIVITY” (Forward Therapeutics, Inc., priority 2023, published 2026) one finds IC50 data, which are given here for eight compounds.

Some results are limits rather than exact numbers.

This experiment deals with HEK Blue™ TNFα reporter cells. The experiment is described as follows: TNF-α Induced HEK Blue Cellular Assay. Format: cell-based. The note with it: TNF-α stimulated HEK Blue TNFα reporter cells, 24 hrs, secreted alkaline phosphatase (QUANTI-Blue, 620 nm). Put shortly:
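Reporter cells (10,000/well) with compound ([…] to 0.5 nM final) were stimulated with TNF-α at […] for 24 h at 37 °C. Secreted alkaline phosphatase was read with QUANTI-Blue at 620 nm. IC50 came from a 4-parameter logistic fit, normalized to unstimulated and stimulated DMSO controls.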
Turning to `CN1C(=O)c2cccc(OC(F)F)c2[C@H]2C[C@@H]1c1nc3ccc(-c4ccc5c(c4)NC(=O)C5(C)O)cc3n12` (stereo partly drawn) [Example 21, (1R,11R)-18-(difluoromethoxy)-5-(3-hydroxy-3-methyl-2-oxo-1H-indol-6-yl)-12-methyl-2,9,12-triazapentacyclo[9.8.1.0^{2,10}.0^{3,8}.0^{14,19}]icosa-3(8),4,6,9,14(19),15,17-heptaen-13-one], the IC50 – broadly, the point on the concentration scale where inhibition reaches its midpoint – was under 100 nM. Under `CN1C(=O)c2cccc(OC(F)F)c2[C@H]2C[C@@H]1c1nc3ccc(-c4ccc5c(c4)OCCC5(C)N)cc3n12` (stereo partly drawn) [Example 24, (1R,11R)-5-(4-amino-4-methyl-2,3-dihydro-1-benzopyran-7-yl)-18-(difluoromethoxy)-12-methyl-2,9,12-triazapentacyclo[9.8.1.0^{2,10}.0^{3,8}.0^{14,19}]icosa-3(8),4,6,9,14(19),15,17-heptaen-13-one] stands under 100 nM. With `CN1C(=O)c2cccc(OC(F)F)c2[C@H]2C[C@@H]1c1nc3cc(F)c(-c4cnc5c(c4)CCC5(C)N)cc3n12` (stereo partly drawn) [Example 27, (1R,11R)-5-{7-amino-7-methyl-5H,6H-cyclopenta[b]pyridin-3-yl}-18-(difluoromethoxy)-6-fluoro-12-methyl-2,9,12-triazapentacyclo[9.8.1.0^{2,10}.0^{3,8}.0^{14,19}]icosa-3(8),4,6,9,14(19),15,17-heptaen-13-one; formic acid] the figure was under 100 nM. `[2H]C([2H])([2H])N1C(=O)c2cccc(OC(F)F)c2[C@H]2C[C@@H]1c1nc3ccc(-c4cnc5c(c4)OCC[C@@H]5N)cc3n12` [Example 30, (7R,14R)-11-((S)-4-amino-3,4-dihydro-2H-pyrano[3,2-b]pyridin-7-yl)-1-(difluoromethoxy)-6-(methyl-d3)-6,7-dihydro-7,14-methanobenzo[f]benzo[4,5]imidazo[1,2-a][1,4]diazocin-5(14H)-one] returned an IC50 of under 100 nM.

As to `CN1C(=O)c2cccc(OC(F)F)c2[C@H]2C[C@@H]1c1nc3ccc(-c4ccc5c(c4)NC(=O)C5(C)N)cc3n12` (stereo partly drawn) [Example 31, (7R,14R)-11-(3-amino-3-methyl-2-oxoindolin-6-yl)-1-(difluoromethoxy)-6-methyl-6,7-dihydro-7,14-methanobenzo[f]benzo[4,5]imidazo[1,2-a][1,4]diazocin-5(14H)-one], the IC50 was under 100 nM. Under `[2H]C([2H])([2H])N1C(=O)c2cccc(OC(F)F)c2[C@H]2C[C@@H]1c1nc3ccc(-c4cnc5c(c4)OCC5(C)O)cc3n12` (stereo partly drawn) [Example 44, (7R,14R)-1-(difluoromethoxy)-11-(3-hydroxy-3-methyl-2,3-dihydrofuro[3,2-b]pyridin-6-yl)-6-(methyl-d3)-6,7-dihydro-7,14-methanobenzo[f]benzo[4,5]imidazo[1,2-a][1,4]diazocin-5(14H)-one] stands under 100 nM; under `[2H]C([2H])([2H])N1C(=O)c2cccc(OC(F)F)c2[C@H]2C[C@@H]1c1nc3ccc(-c4cnc5c(c4)COCC5(C)N)cc3n12` (stereo partly drawn) [Example 45, (7R,14R)-11-(8-amino-8-methyl-7,8-dihydro-5H-pyrano[4,3-b]pyridin-3-yl)-1-(difluoromethoxy)-6-(methyl-d3)-6,7-dihydro-7,14-methanobenzo[f]benzo[4,5]imidazo[1,2-a][1,4]diazocin-5(14H)-one], 100 to 1000 nM. `[2H]C([2H])([2H])N1C(=O)c2cccc(OC(F)F)c2[C@H]2C[C@@H]1c1nc3ccc(-c4cnc5c(c4)OCCC5O)cc3n12` (stereo partly drawn) [Example 48, (7R,14R)-1-(difluoromethoxy)-11-(4-hydroxy-3,4-dihydro-2H-pyrano[3,2-b]pyridin-7-yl)-6-(methyl-d3)-6,7-dihydro-7,14-methanobenzo[f]benzo[4,5]imidazo[1,2-a][1,4]diazocin-5(14H)-one]: the IC50 was under 100 nM.
